Measured values reported in patent US8710071B2, “Compounds, compositions and methods for reducing lipid levels” (CVI Pharmaceuticals Limited, priority 2008, dated 2014).
Entries after “also recorded” stand apart in the source; their conditions may differ.

Columns and labels:
hyperlipidemic rabbits = assay: Lipid lowering effects and blood chemistry in hyperlipidemic rabbits; details: day 14, doses increased after day 7 to 60 mg/kg (128(+)/128(−)) and 10 mg/kg (SMV/ATV), mean ± SD
Procedure: Forty-two male Japanese rabbits were fed the cholesterol enriched rabbit diet for two weeks to induce hypercholesterolemia. […] Serum samples were collected at day 0 (before the drug treatment) and day 7. […] All tested animals were sacrified at the end of a total of 14 days treatment and serum samples were analyzed for TC, LDL-C, TG, and HDL-C. In addition to lipid profiles, a number of biochemical parameters were also analyzed to aseesee the effects of drug treatments on liver function, muscle function, kidney function, and heart function.

HepG2 cells = assay: DiI-LDL uptake (LDLR ligand uptake activity) in HepG2 cells; assay type: cell-based, human; details: for Activity in LDL uptake at 10 uM (relative to control): 20 hours (first symbol of the cell); for Activity in LDL uptake at 40 uM (relative to control): 20 hours (second symbol of the cell); for Activity on DiI-LDL uptake: 20 hours
Procedure: HepG2 cells (2×10^5 cells/well) in 24-well culture plates were treated with various compounds at indicated concentrations for 20 hours. The fluorescent 1.1′-dioctadecyl-3,3,3′,3′-tetramethylindocarbocyanin perchlorate (DiI-LDL) (Biomedical Technologies, Stoughton, Mass.) at a concentration of 2 μg/mL was added to cells at the end of treatment. After 4 hours, the medium was removed, cells were washed with cold PBS, and were examined immediately under a fluorescent microscope (Nikon) at 200× amplification. The fluorescent intensity in compound-treated cells was compared to that in untreated control cells. […] In these experiments berberine chloride was used for comparison.
The combined beneficial effects of these novel compounds on elevation of LDLR mRNA levels likely through the mechanism of mRNA stabilization and their inhibitory activity towards PCSK9, the secreted protease that degrades LDLR protein, result in strong increases in LDL ligand uptake activity through increased receptor surface abundance. […] Briefly, HepG2 cells (2×10^5 cells/well) in 24-well culture plates were treated with various compounds at 10 and 40 uM concentrations for 20 hours. The fluorescent 1.1′-dioctadecyl-3,3,3′,3′-tetramethylindocarbocyanin perchlorate (DiI-LDL) (Biomedical Technologies, Stoughton, Mass.) at a concentration of 2 μg/ml was added to cells at the end of treatment. After 4 hours, the medium was removed; cells were washed with cold PBS, and were examined immediately under a fluorescent microscope (Nikon) at 200× amplification. The fluorescent intensity in compound-treated cells was compared to that in untreated control cells. […]

LDLR mRNA [1] = assay: LDLR mRNA expression in HepG2 cells, quantitative real-time RT-PCR; assay type: cell-based, human; details: Homo sapiens, 24 hours, mean ± s.d.; for fold induction at 10 µM: read-out: Activity on LDLR mRNA at 10 uM (fold of control); for fold induction at 40 µM: read-out: Activity on LDLR mRNA at 40 uM (fold of control)
Procedure: Activities of some compounds of Formulas I, II, III, and IV on LDLR mRNA expression were determined. HepG2 cells were treated with new compounds individually at a dose less than or equal to 10 μM for 24 hours. Total RNA was harvested for quantitative real-time RT-PCR analysis using the method described in Example 16B. […] In these experiments, berberine chloride was included for comparison.
The time-dependent effects of compounds of Formula I, II, III, and IV on the upregulation of LDLR mRNA and the inhibition of PCSK9 mRNA expression were examined (Horton J D, Cohen J C, Hobbs H I T. “Molecular biology of PCSK9: its role in LDL metabolism” TRENDS in Biochemical Sciences 2007; 32:71-77). HepG2 cells were treated with new compounds individually at 20 uM dose for 1 day, 2 day, and 3 days. Total RNA was isolated and 2 μg was used to generate cDNA in a reaction containing random primers and M-MLV at 37° C. for 1 hour in a volume of 25 μl. Real-time PCR was performed on the cDNA using MCEP REALPLEX 2 SYSTEM (Eppendorf) and Universal MasterMix (Applied Biosystems). Human LDLR, PCSK9, and GAPDH Pre-Developed TaqMan Assay Reagents (Applied Biosystems) were used to assess the levels of mRNA expressions in HepG2. The levels of LDLR mRNA or PCSK9 mRNA were normalized to that of GAPDH. Each RNA samples was assayed in triplicate. The abundance of LDLR mRNA or PCSK9 mRNA in untreated cells was defined as 1, and the amounts of LDLR mRNA or PCSK9 from compound-treated cells were plotted relative to that value (FIG. 10). The data shown are mean±s.d.
Total RNA was harvested for quantitative real-time RT-PCR analysis using method described in Examples 16B.
The effects of 23 compounds on the mRNA expressions of LDLR and PCSK9 were examined using quantitative real-time RT-PCR assays. HepG2 cells were treated with various compounds at 10 and 40 uM concentrations for 24 hours. Total RNA was isolated and […] was used to generate cDNA in a reaction containing random primers and M-MLV at 37° C. for 1 h in a volume of 25 μl. Real-time PCR was performed on the cDNA using MCEP REALPLEX 2 SYSTEM (Eppendorf) and Universal MasterMix (Applied Biosystems). Human LDLR, PCSK9, and GAPDH Pre-Developed TaqMan Assay Reagents (Applied Biosystems) were used to assess the levels of mRNA expressions in HepG2. The levels of LDLR and PCSK9 mRNA were normalized to that of GAPDH. Each RNA samples was assayed in duplicate. The fold activity was calculated by dividing mRNA abundance in compound treated cells with that of control.

[2] = tested on: acetyl coenzyme A carboxylase (ACC); assay: ACC phosphorylation in HepG2 cells, Western blot; assay type: cell-based, human; details: 20 μg/ml, 0.5, 2, or 8 hours (FIG. 6)
Procedure: HepG2 cells were treated with 20 μg/ml14R-(+)-THP for 0.5, 2, or 8 hours. Cells were lysed, and 50 μg protein from each sample was subjected to SDS-PAGE, followed by Western blotting using anti-phosphorylated ACC (Cell Signaling) and subsequently reprobed with antibody against β-actin.
Cells were harvested after 1, 2, and 3 days treatment and western blot analysis was conducted using antibodies directed to LDLR and PCSK9. Chicken anti-LDLR was purchased from Abeam, the mouse anti-PCSK9 was purchased from Cayman Chemicals, and anti-pACC was purchased from Cell Signaling.

LDLR mRNA [3] = assay: LDLR mRNA expression in HepG2 cells, semi-quantitative RT-PCR; assay type: cell-based, human; details: indicated doses, 8 hours, semi-quantitative RT-PCR (FIG. 3)
Procedure: HepG2 cells obtained from American Tissue Culture Collection (Manassas, Va., USA) were seeded in 6-well culture plates at a density of 0.8×10^6 cells/well cultured in EMEM containing 0.5% FBS and were treated with each purified compound at indicated doses for 8 hours. Total RNA was isolated, and 2 μg per sample was reverse transcribed with random primers using M-MLV (Promega) at 37° C. for 1 hour. PCR was carried out at 94° C. for 30 sec, 60° C. for 30 sec, and 72° C. for 30 sec with initial activation of the enzyme at 94° C. for 1 minute. Thirty cycles were performed for LDLR and GAPDH. PCR was performed using primers HLDLR-up and HLDLR-lo for LDLR and primers HGAPDH-up and HGAPDH-lo for GAPDH. The PCR products were separated on a 1% agarose gel and the band intensity was quantitated. LDLR mRNA levels were corrected by measuring GAPDH mRNA levels.
Specific stereochemical requirements of +1-THP in the upregulation of LDLR mRNA expression were determined by a similar experiment. HepG2 cells were treated with the pure 14R-(+)-THP or the pure 14S-(−)-THP at the indicated concentrations for 24 hours. The levels of LDLR mRNA and GAPDH mRNA in untreated and the compound-treated HepG2 cells were assessed by semi-quantitative RT-PCR.

ERK = ERK activation in HepG2 cells, Western blot with anti-phosphorylated ERK; assay type: cell-based, human; details: 20 μg/mL, 0.5, 2, or 8 hours (FIG. 5)
Procedure: HepG2 cells cultured in 60-mm dishes were treated with various compounds at a concentration of 15 μg/ml for 2 hours. Total cell lysate was isolated and 50 μg of protein was separated on SDS-PAGE and transferred to nitrocellulose membrane.
HepG2 cells were treated with 20 μg/mL 14R,13S-(+)-CRDL and 14R-(+)-THP respectively for 0.5, 2, or 8 hours. Cells were then lysed. After protein quantitation using the BCA™ protein assay reagent (PIERCE), 50 μg protein from each sample was subjected to SDS-PAGE, followed by Western blotting using anti-phosphorylated ERK (Cell Signaling) and subsequently reprobed with antibody against β-actin.

[4] = tested on: Wister male rats under a high fat and high cholesterol diet; assay: Lipid lowering effects of (14R,13S)-CRDL hydrochloride salt in Wister rats; assay type: in vivo, rat; details: 75 mg/kg daily orally
Procedure: Male Wister rats were used as an animal model to examine the in vivo effects of (14R,13S)—CRDL in plasma lipid levels.
In one experiment, 18 Wister male rats under a high fat and high cholesterol diet were divided into 2 groups. One group was given (14R,13S)—CRDL hydrochloride salt orally at a daily dose of 75 mg/kg by an orogastric tube for 4 weeks, and the control group received daily treatment of equal amount of vehicle (0.1 M sodium phosphate, pH 3.5). Serum lipid levels were measured weekly.
At the end of treatment, Rats were sacrificed and blood and sera were collected to measure several critical parameters for liver function and kidney function. […] Kidney function and blood glucose level were not changed by the treatment.

SMILES: CC(C)c1c(C(=O)Nc2ccccc2)c(-c2ccccc2)c(-c2ccc(F)cc2)n1CC[C@@H](O)C[C@@H](O)CC(=O)O [ATV, atorvastatin, reference compound]
- serum total cholesterol levels, treatment day 14 (hyperlipidemic rabbits): 33.9 ± 6.5

SMILES: COc1cc2c(cc1C(=O)NCCO)C1Cc3ccc(OC)c(OS(=O)(=O)c4ccccc4)c3CN1CC2 (stereo not drawn) [Compound 137, 2-[N-(2-hydroxyethyl)carbamoyl]-3,10-dimethoxy-5,6,7,8,13,13a-hexahydroisoquinolino[2,1-b]isoquinolin-9-yl benzenesulfonate]
- Activity in LDL uptake at 10 uM (relative to control) (HepG2 cells): +
- Activity in LDL uptake at 40 uM (relative to control) (HepG2 cells): +++

SMILES: COc1ccc2c(c1)CCN1Cc3c(ccc(OC)c3OS(=O)(=O)c3ccccc3)CC21 (stereo not drawn) [Compound 115, 3,10-Dimethoxy-5,6,7,8,13,13a-hexahydroisoquinolino[2,1-b]isoquinolin-9-yl benzenesulfonate]
- Activity in LDL uptake at 40 uM (relative to control) (HepG2 cells): +++
- fold induction at 10 µM (LDLR mRNA [1]): 0.51 ± 0.11
- fold induction at 40 µM (LDLR mRNA [1]): 2.65 ± 0.06

SMILES: COc1cc2c(cc1OC)[C@H]1Cc3ccc(OC)c(OC)c3CN1CC2 [14R-(+)-THP, 14R-(+)-tetrahydropalmatine]
- ACC phosphorylation [2]: induction of ACC phosphorylation
- Activity on DiI-LDL uptake (HepG2 cells; B: compound dose ≦ 40 μM): ++
- LDLR mRNA expression (LDLR mRNA [3]): potent and dose-dependent effects
- activation of ERK (ERK): activation of ERK

SMILES: COc1cc2c(cc1OC)[C@H]1[C@@H](C)c3ccc(OC)c(OC)c3CN1CC2 [CRDL, corydaline]
- serum levels of AST and ALT (liver function) ([4]; end of 4-week treatment, versus control group, 75 mg/kg): liver function was not damaged; also recorded: statistically lower
- adverse effects ([4]; entire 4-week treatment): No any adverse effects were observed

SMILES: COc1cc2c(cc1O)CCN1Cc3c(ccc(OC)c3OC)CC21 (stereo not drawn) [14R-(+)-CRPM, 14R-(+)-corypalmine]
- Activity on DiI-LDL uptake (HepG2 cells; A: compound dose ≦ 10 μM): ++
- LDLR mRNA expression (LDLR mRNA [3]): potent and dose-dependent effects

SMILES: COc1cc2c(cc1OCCO)CCN1Cc3c(ccc(OC)c3OS(=O)(=O)c3ccccc3)CC21 (stereo not drawn) [Compound 138, 3-(2-Hydroxyethoxy)-2,10-dimethoxy-5,6,7,8,13,13a-hexahydroisoquinolino[2,1-b]isoquinolin-9-yl benzenesulfonate]
- Activity in LDL uptake at 10 uM (relative to control) (HepG2 cells): +
- Activity in LDL uptake at 40 uM (relative to control) (HepG2 cells): +++

SMILES: COc1ccc2c(c1OS(=O)(=O)c1ccccc1)CN1CCc3cc4c(cc3C1C2)OCCO4 (stereo not drawn) [Compound 116, 11-Methoxy-6,7,8,9,14,14a-hexahydro-2H,3H-1,4-dioxano[5,6-g]isoquinoluio[3,2-a]isoquinolin-10-yl benzenesulfonate]
- fold induction at 10 µM (LDLR mRNA [1]): 1.41 ± 0.04
- fold induction at 40 µM (LDLR mRNA [1]): 7.19 ± 1.29

SMILES: COc1cc2c(cc1OC)[C@H]1[C@@H](C)c3ccc(OC)c(OC)c3CN1CC2 [14R,13S-(+)-CRDL, 14R,13S-(+)-corydaline]
- Activity on DiI-LDL uptake (HepG2 cells; B: compound dose ≦ 40 μM): ++
- LDLR mRNA expression (LDLR mRNA [3]): potent and dose-dependent effects
- activation of ERK (ERK): activation of ERK

SMILES: CCC(C)(C)C(=O)O[C@H]1C[C@@H](C)C=C2C=C[C@H](C)[C@H](CC[C@@H]3C[C@@H](O)CC(=O)O3)[C@H]21 [SMV, simvastatin, reference compound]
- serum total cholesterol levels, treatment day 14 (hyperlipidemic rabbits): 26.2 ± 5.5

SMILES: COc1ccc2c(c1OS(=O)(=O)c1ccccc1)CN1CCc3cc(C)ccc3C1C2 (stereo not drawn) [Compound 121, 10-Methoxy-3-methyl-5,6,7,8,13,13a-hexahydroisoquinolino[2,1-b]isoquinofin-9-yl benzenesulfonate]
- Activity in LDL uptake at 10 uM (relative to control) (HepG2 cells): +++
- Activity in LDL uptake at 40 uM (relative to control) (HepG2 cells): +
